Assay results: patent publication US20100323990A1, “SHIP 1 MODULATOR PRODRUGS” (THE UNIVERSITY OF BRITISH COLUMBIA, priority 2006, published 2010)

How the values were obtained:
[1] = Initial toxicology studies; format: in vivo; details: data not shown
Text: A novel paradigm for inhibiting PI3K signaling through activation of the phosphatases that negatively regulate this pathway is provided. SHIP is a particularly good target for immune/hematopoietic disorders because of its restricted expression to hematopoietic cells. Because the relative activity of phosphatases present in a cell will influence the efficacy of kinase inhibitors, as discussed by Knight and Shokat, SHIP agonists may also be used to potentiate the activation of PI3K inhibitors and promote tissue targeting of PI3K inhibitors to the ematopoietic/immune cell compartment.

MM cell lines = assay: In vitro Multiple Myeloma (MM) assay (Assay 7); format: cell-based; details: for Assay 7: In vitro Multiple Myeloma (MM) assay, desired activity: viable cell number by trypan blue, [3H]-thymidine; on Assay 7: In vitro Multiple Myeloma (MM) assay, desired activity: key: a ‘+’ indicates a positive result for desired activity; a ‘−’ indicates a negative result for desired activity
Method: Assay 1) In vitro testing in a SHIP enzyme assay. Test compounds were dissolved in a suitable solvent (e.g. EtOH, DMSO and others) and diluted into aqueous buffer (20 mM Tris HCl, pH 7.5 and 10 mM MgCl2). SHIP enzyme assays were performed in 96-well microtitre plates with 10 ng of enzyme/well in a total volume of 25 μL of 20 mM Tris HCl, pH 7.5 and 10 mM MgCl2. SHIP enzyme was incubated with test extracts (provided in solvent) or vehicle for 15 min at 23° C. before the addition of 100 μM inositol-1,3,4,5-tetrakisphosphate (Echelon Biosciences Inc, Salt Lake City, Utah). After 20 min at 37° C. and the amount of inorganic phosphate released assessed by the addition of Malachite Green reagent and absorbance measurement at 650 nm. Assay 2) Macrophage TNF-α production. J774.1a macrophage cells were treated with 10 μg/mL of test compound dissolved in solvent (e.g. cyclodextran) for 40 minutes prior to the addition of 100 ng/mL LPS. Culture supernatants were collected after 2 hr and 5 hr for TNF-α determination by ELISA. Assay 3) Macrophage TNF-α NO assay. J774.1a macrophage cells were treated with 10 μg/ml of test compound dissolved in solvent for 40 minutes prior to the addition of LPS. Culture supernatants were collected after 24 hr. for determination of NO concentration using the Griess reagent. Assay 4) Stimulation of mast cells by FcεRI crosslinking. Mast cells were pre-loaded overnight in BMMC medium lacking IL-3 with 0.1 μg/ml anti-DNP IgE (SPE-7, Sigma, Oakville, Ont). For calcium flux measurements, cells were incubated with 2 μM fura 2-acetoxymethyl ester (Molecular Probes, Eugene, Oreg.) in Tyrode's buffer at 23° C. for 45 min. Cells were then washed and incubated in the presence of the test compound 30 min prior to stimulation with the indicated concentration of DNP-human serum albumin (DNP-HSA). Calcium influx was monitored by spectrofluorometry as described previously. For analysis of intracellular signaling, cells were pre-loaded with anti-DNP IgE as above, pre-treated with the test compound for 30 min at 37° C. and stimulated with 20 ng/ml DNP-HSA for 5 min. Total cell lysates were then prepared and analyzed for phospho-PKB, phospho-p38^MAPK, phospho-MAPK, Grb-2 (Cell Signalling, Mississauga, Ont) and SHIP^6 by immunoblot analysis. Assay 5) Mouse acute cutaneous anaphylaxis model. 6-8 week old CD1 mice (University of British Columbia Animal Facility, Vancouver, BC) were sensitized to the hapten DNP by cutaneous application of 25 μL of 0.5% dinitrofluorobenzene (DNFB) (Sigma, Oakville, Ont) in acetone to the shaved abdomen of mice for two consecutive days. 24 hrs later, test substances (dissolved in 10 μL of 1:2 DMSO:MeOH) were painted on the right ear while the left ear received vehicle control. 30 min after drug application, DNFB was applied to both ears to induce mast cell degranulation. A 6 mm punch was taken from the ear and immediately frozen on dry ice for subsequent determination of neutrophil myeloperoxidase (MPO) activity. Assay 6) Mouse endotoxemia model. 6-8 week old C57B16 mice (VCHRI Mammalian Model of Human Disease Core Facility, Vancouver, BC) were orally administered the test compound 30 min prior to an IP injection of 2 mg/kg of LPS (E. Coli serotype 0111:B4, Sigma, Oakville, Ont). Blood was drawn 2 hrs later for determination of plasma TNFα by ELISA. Assay 7) In vitro Mulitple Myeloma (MM) assay. The ability of SHIP activators to reduce tumor cell survival was assessed in MM cell lines treated with the test compound. The lines OPM1, OPM2, MM.1S and RPMI 8226 were plated at a density of 1×10^5 cells/mL in 200 μL of medium with various concentrations of the test compound, and viable cell numbers were determined on day 3 and day 5 by trypan blue exclusion. The lines RPMI 8226 and U266 were plated at a density of 1×10^6 cells/mL in 250 μL of medium with various concentrations of the test compound. At day 4, the medium of each culture was replaced by fresh medium containing the same concentration of test compound. […]

[2] = system: CD1 mice sensitized to the hapten DNP; assay: Mouse acute cutaneous anaphylaxis model (Assay 5); format: in vivo; details: for Assay 5: Mouse acute cutaneous anaphylaxis model, desired activity: topical on ear, DNFB challenge, MPO activity

Structure (SMILES) | peripheral blood cell counts and bone marrow progenitor numbers [1] | tolerability [1] | Assay 7: In vitro Multiple Myeloma (MM) assay, desired activity (MM cell lines) | Assay 5: Mouse acute cutaneous anaphylaxis model, desired activity [2] | MM proliferation / tumor cell survival, comparison (MM cell lines; OPM1, OPM2, MM.1S, RPMI 8226, U266, trypan blue) | allergen (DNFB)-induced inflammation of the ear ([2]; topically applied, vs vehicle control-treated ear)
Cc1cc(O)c(O)c2c1[C@]1(C)CCC3C(C)(C)CCC[C@]3(C)[C@H]1C2 (stereo partly shown) [AQX-016A] | do not significantly affect | well tolerated | + | + |  | 
Cc1cc(O)cc2c1[C@]1(C)CCC3C(C)(C)CCC[C@]3(C)[C@H]1C2 (stereo partly shown) [Compound 100] | do not significantly affect | well tolerated | + | + | inhibits MM proliferation at lower concentrations than AQX-016A | dramatically inhibited allergen-induced inflammation
